In US11447487B2, “Spiroheptanyl hydantoins as rock inhibitors” (BRISTOL-MYERS SQUIBB COMPANY, priority 2017, dated 2022):
pIC50: −log10 of the molar value.

These compounds were tested against ROCK2 (Homo sapiens (Human), UniProt O75116) (assay: ROCK assay (Caliper LABCHIP peptide phosphorylation)). Settings: 5 μM ATP, 1.5 μM peptide substrate.
Assay type: biochemical
Description: The effectiveness of compounds of the present invention as ROCK inhibitors can be determined in a 30 μL assay containing 20 mM HEPES, pH 7.5, 20 mM MgCl2, 0.015% Brij-35, 4 mM DTT, 5 μM ATP and 1.5 μM peptide substrate (FITC-AHA-AKRRRLSSLRA-OH) (SEQ ID No. 1). Compounds were dissolved in DMSO so that the final concentration of DMSO was <2%, and the reaction was initiated with Rho kinase variants. After incubation, the reaction was terminated by the addition of EDTA and the phosphorylated and non-phosphorylated peptides separated using a LABCHIP® 3000 Reader (Caliper Life Sciences). […] Compounds were tested in dose-response format, and the inhibition of kinase activity was calculated at each concentration of compound. The inhibition data were fit using a curve-fitting program to determine the IC50; i.e., the concentration of compound required to inhibit 50% of kinase activity. Representative Examples were tested in the ROCK assay described above and found having ROCK inhibitory activity. A range of ROCK inhibitory activity (IC50 values) of ≤50 μM (50000 nM) was observed. Table A below lists the ROCK IC50 values measured for the following examples.

ROCK2, sequence (O75116 whole entry, species assumed): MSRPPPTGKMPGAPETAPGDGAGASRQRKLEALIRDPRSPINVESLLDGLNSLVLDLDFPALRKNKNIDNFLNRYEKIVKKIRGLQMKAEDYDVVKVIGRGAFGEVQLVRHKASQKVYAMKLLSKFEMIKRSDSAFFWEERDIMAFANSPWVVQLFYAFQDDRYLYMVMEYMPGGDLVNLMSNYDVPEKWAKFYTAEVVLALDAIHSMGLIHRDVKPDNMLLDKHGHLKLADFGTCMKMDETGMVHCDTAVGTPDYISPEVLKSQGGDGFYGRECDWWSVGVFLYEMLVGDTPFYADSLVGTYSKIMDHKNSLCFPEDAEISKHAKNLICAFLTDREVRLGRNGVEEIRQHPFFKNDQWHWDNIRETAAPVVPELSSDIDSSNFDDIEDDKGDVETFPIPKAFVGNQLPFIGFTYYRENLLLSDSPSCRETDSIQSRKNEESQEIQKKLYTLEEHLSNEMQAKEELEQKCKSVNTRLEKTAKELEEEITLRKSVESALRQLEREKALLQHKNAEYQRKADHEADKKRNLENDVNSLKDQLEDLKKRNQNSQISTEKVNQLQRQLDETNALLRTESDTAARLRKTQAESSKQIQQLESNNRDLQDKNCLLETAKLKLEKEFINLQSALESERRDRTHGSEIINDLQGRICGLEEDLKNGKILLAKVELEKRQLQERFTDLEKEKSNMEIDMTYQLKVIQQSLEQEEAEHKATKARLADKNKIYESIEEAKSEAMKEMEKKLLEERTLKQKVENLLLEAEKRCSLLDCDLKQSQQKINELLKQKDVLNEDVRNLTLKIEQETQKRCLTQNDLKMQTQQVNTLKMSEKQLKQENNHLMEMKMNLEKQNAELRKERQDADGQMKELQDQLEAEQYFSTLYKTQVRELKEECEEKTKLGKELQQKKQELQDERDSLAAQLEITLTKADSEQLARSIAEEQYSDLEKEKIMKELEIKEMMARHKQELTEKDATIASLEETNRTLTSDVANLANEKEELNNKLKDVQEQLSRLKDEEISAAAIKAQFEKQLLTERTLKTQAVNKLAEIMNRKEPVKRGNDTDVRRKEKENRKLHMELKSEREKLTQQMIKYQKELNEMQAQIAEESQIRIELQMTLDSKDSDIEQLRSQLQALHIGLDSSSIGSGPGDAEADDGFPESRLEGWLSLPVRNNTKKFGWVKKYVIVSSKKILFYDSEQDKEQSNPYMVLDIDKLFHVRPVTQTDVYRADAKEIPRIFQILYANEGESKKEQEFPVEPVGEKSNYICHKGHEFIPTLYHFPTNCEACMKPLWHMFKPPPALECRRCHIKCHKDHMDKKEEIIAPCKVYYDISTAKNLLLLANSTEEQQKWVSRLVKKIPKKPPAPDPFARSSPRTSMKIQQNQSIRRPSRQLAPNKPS

Compound	pIC50
CCC(CC)CC1NC(=O)N([C@H]2C[C@@]3(C[C@H](Oc4ncccc4C(N)=O)C3)C2)C1=O (single isomer, unassigned) [Example 48, 2-{[(αR)-6-[4-(2-ethylbutyl)-2,5-dioxoimidazolidin-1-yl]spiro[3.3]-heptan-2-yl]oxy}-pyridine-3-carbox-amide]	7.25
NC(=O)c1cccnc1O[C@H]1C[C@]2(C1)C[C@H](N1C(=O)NC(CCOCC(F)(F)F)C1=O)C2 (single isomer, unassigned) [Example 50, 2-{[(αR)-6-{2,5-dioxo-4-[2-(2,2,2-trifluoroethoxy)-ethyl]imidazolidin-3-yl}spiro[3.3]-heptan-2-yl]oxy}-pyridine-3-carbox-amide]	7.21
NC(=O)c1cccnc1O[C@H]1C[C@]2(C1)C[C@H](N1C(=O)NC(CC3CCCC3)C1=O)C2 (single isomer, unassigned) [Example 52]	6.80
NC(=O)c1cccnc1O[C@H]1C[C@]2(C1)C[C@H](N1C(=O)NC(CCC3CCCCCC3)C1=O)C2 (single isomer, unassigned) [Example 53, 2-{[(αR)-6-[4-(2-cycloheptylethyl)-2,5-dioxoimidazol-idin-1-yl]spiro-[3.3]-heptan-2-yl]-oxy}pyridine-3-carboxamide]	6.77
NC(=O)c1cccnc1O[C@H]1C[C@]2(C1)C[C@H](N1C(=O)NC(CC3CCCO3)C1=O)C2 (single isomer, unassigned) [Example 55]	6.67
NC(=O)c1cccnc1O[C@H]1C[C@]2(C1)C[C@H](N1C(=O)NC(CCOC(F)(F)F)C1=O)C2 (single isomer, unassigned) [Example 57, 2-{[(αR)-6-{2,5-dioxo-4-[2-(tri-fluoromethoxy)-ethyl]imidazolidin-1-yl}spiro[3.3]-heptan-2-yl]oxy}-pyridine-3-carbox-amide]	6.59
NC(=O)c1cccnc1O[C@H]1C[C@]2(C1)C[C@H](N1C(=O)NC(CCOC(F)(F)F)C1=O)C2 (single isomer, unassigned) [Example 59, 2-{[(αR)-6-{2,5-dioxo-4-[2-(trifluoromethoxy)-ethyl]imidazolidin-1-yl}spiro[3.3]-heptan-2-yl]oxy}-pyridine-3-carbox-amide]	6.52
NC(=O)c1cccnc1O[C@H]1C[C@]2(C1)C[C@H](N1C(=O)NC(CCCC(F)(F)F)C1=O)C2 (single isomer, unassigned) [Example 60, 2-{[(αR)-6-[2,5-dioxo-4-(4,4,4-trifluorobutyl)-imidazolidin-1-yl]-spiro[3.3]heptan-2-yl]oxy}pyridine-3-carboxamide]	6.51
NC(=O)c1cccnc1O[C@H]1C[C@]2(C1)C[C@H](N1C(=O)NC(CCOCC(F)(F)F)C1=O)C2 (single isomer, unassigned) [Example 61]	6.42
[H][C@]1(Oc2ncccc2C(N)=O)C[C@]2(C[C@@H](N3C(=O)N[C@@H](CC(C)C)C3=O)C2)C1 (some centres unmarked) [Example 1]	8.10
NC(=O)c1cccnc1O[C@H]1C[C@]2(C1)C[C@H](N1C(=O)NC3(CCCC3)C1=O)C2 (some centres unmarked) [Example 8, 2-{[(αR)-6-{2,4-dioxo-1,3-diaza-spiro[4.4]nonan-3-yl}spiro[3.3]-heptan-2-yl]oxy}-pyridme-3-carbox-amide]	6.72
CC(C)(C)OCC1NC(=O)N([C@H]2C[C@@]3(C[C@H](Oc4ncccc4C(N)=O)C3)C2)C1=O (some centres unmarked) [Example 9, 2-{[(αR)-6-(4-tert-butoxymethyl-2,5-dioxoimidazolidin-1-yl)spiro[3.3]-heptan-2-yl]oxy}-pyridine-3-carbox-amide]	6.66
NC(=O)c1cccnc1OC1CC2(C1)CC(N1C(=O)CN(Cc3ccccc3)C1=O)C2 (centres unmarked) [Example 10, 2-{[6-(3-benzyl-2,5-dioxoimidazol-idin-1-yl)spiro-[3.3]heptan-2-yl]-oxy}pyridine-3-carboxamide]	6.65
NC(=O)c1cccnc1O[C@H]1C[C@]2(C1)C[C@H](N1C(=O)CN(CCc3ccccc3)C1=O)C2 (some centres unmarked) [Example 11]	6.65
CC(C)CN1CC(=O)N([C@H]2C[C@@]3(C[C@H](Oc4ncccc4C(N)=O)C3)C2)C1=O (some centres unmarked) [Example 13, 2-{[(αR)-6-[3-(2-methylpropyl)-2,5-dioxoimidazol-idin-1-yl]spiro-[3.3]heptan-2-yl]-oxy}pyridine-3-carboxamide]	6.29
C#CCC1NC(=O)N([C@H]2C[C@@]3(C[C@H](Oc4ncccc4C(N)=O)C3)C2)C1=O (some centres unmarked) [Example 14, 2-{[(αR)-6-[2,5-dioxo-4-(prop-2-yn-1-yl)imidazol-idin-1-yl]spiro-[3.3]heptan-2-yl]oxy}pyridine-3-carboxamide]	6.25
CC(C)(C)OC(=O)NCCCC1NC(=O)N([C@H]2C[C@@]3(C[C@H](Oc4ncccc4C(N)=O)C3)C2)C1=O (some centres unmarked) [Example 15, tert-butyl N-(3-{2,5-dioxo-1-[(αR)-6-[(3-carbamoylpyridin-2-yl)oxy]spiro-[3.3]heptan-2-yl]imidazolidin-4-yl}propyl)-carbamate]	6.13
Cn1cnc(CC2NC(=O)N([C@H]3C[C@@]4(C[C@H](Oc5ncccc5C(N)=O)C4)C3)C2=O)c1 (some centres unmarked) [Example 19, 2-{[(αR)-6-[2,5-dioxo-4-(1-methyl-4-imidazylmethyl)-imidazolidin-1-yl]spiro[3.3]heptan-2-yl]oxy}pyridine-3-carboxamide]	5.79
[H][C@]1(Oc2ncccc2C(N)=O)C[C@]2(C[C@@H](N3C(=O)N[C@@H](Cc4ccccc4)C3=O)C2)C1 (some centres unmarked) [Example 24]	6.71
CC(C)(C)C[C@@H]1NC(=O)N([C@H]2C[C@@]3(C[C@H](Oc4ncccc4C(N)=O)C3)C2)C1=O (stereo partly drawn) [Example 25, 2-{[(αR)-6-[(4S)-4-(2,2-dimethyl-propyl)-2,5-dioxo-imidazolidin-1-yl]-spiro[3.3]heptan-2-yl]oxy}pyridine-3-carboxamide]	8.00
NC(=O)c1cccnc1O[C@H]1C[C@]2(C1)C[C@H](N1C(=O)N[C@@H](CC3CC3)C1=O)C2 (stereo partly drawn) [Example 26, 2-{[(αR)-6-[(4S)-4-(cyclopropyl-methyl)-2,5-dioxo-imidazolidin-1-yl]-spiro[3.3]heptan-2-yl]oxy}pyridine-3-carboxamide]	7.42
CCCC[C@@H]1NC(=O)N([C@H]2C[C@@]3(C[C@H](Oc4ncccc4C(N)=O)C3)C2)C1=O (stereo partly drawn) [Example 28, 2-{[(αR)-6-[(4S)-4-butyl-2,5-dioxo-imidazolidin-1-yl]spiro[3.3]heptan-2-yl]oxy}pyridine-3-carboxamide]	7.24

More lines, now with the values ahead:

pIC50	Compound
6.59	NC(=O)c1cccnc1O[C@H]1C[C@]2(C1)C[C@H](N1C(=O)NC(CC(C(F)(F)F)C(F)(F)F)C1=O)C2 (single isomer, unassigned) [Example 56, 2-{[(αR)-6-{2,5-dioxo-4-[3,3,3-trifluoro-2-(trifluoromethyl)-propyl]imidazol-idin-1-yl}spiro-[3.3]heptan-2-yl]-oxy}pyridine-3-carboxamide]
6.10	NC(=O)c1cccnc1O[C@H]1C[C@]2(C1)C[C@H](N1C(=O)NC(CC3CCCO3)C1=O)C2 (single isomer, unassigned) [Example 64, 2-{[(αR)-6-{2,5-dioxo-4-[(oxolan-2-yl)methyl]-imidazolidin-1-yl}-spiro[3.3]heptan-2-yl]oxy}pyridine-3-carboxamide]
8.05	NC(=O)c1cccnc1OC1CC2(C1)CC(N1C(=O)CN(c3ccccc3)C1=O)C2 (centres unmarked) [Example 3, 2-{[6-(2,5-dioxo-3-phenylimidazol-idin-1-yl)spiro-[3.3]heptan-2-yl]-oxy}pyridine-3-carboxamide]
6.89	CC(C)(C)C1NC(=O)N([C@H]2C[C@@]3(C[C@H](Oc4ncccc4C(N)=O)C3)C2)C1=O (some centres unmarked) [Example 7, 2-{[(αR)-6-(4-tert-butyl-2,5-dioxo-imidazolidin-1-yl)spiro[3.3]-heptan-2-yl]oxy}-pyridine-3-carbox-amide]
6.04	NC(=O)c1cccnc1O[C@H]1C[C@]2(C1)C[C@H](N1C(=O)NC3(CCC3)C1=O)C2 (some centres unmarked) [Example 16, 2-{[(αR)-6-{6,8-dioxo-5,7-diaza-spiro[3.4]octan-7-yl}spiro[3.3]-heptan-2-yl]oxy}-pyridine-3-carbox-amide]
5.87	NC(=O)c1cccnc1O[C@H]1C[C@]2(C1)C[C@H](N1C(=O)C3CCCCN3C1=O)C2 (some centres unmarked) [Example 17, 2-{[(αR)-6-{1,3-dioxo-hexahydro-1H-piperidino[1,2-c]imidazolidin-2-yl}spiro[3.3]heptan-2-yl]oxy}pyridine-3-carboxamide]
5.82	NC(=O)c1cccnc1O[C@H]1C[C@]2(C1)C[C@H](N1C(=O)NC(CCO)C1=O)C2 (some centres unmarked) [Example 18, 2-{[(αR)-6-[2,5-dioxo-4-(2-hydroxyethyl)-imidazolidin-1-yl]spiro[3.3]-heptan-2-yl)oxy}-pyridine-3-carboxamide]
5.53	NC(=O)c1cccnc1O[C@H]1C[C@]2(C1)C[C@H](N1C(=O)NC(Cc3c[nH]cn3)C1=O)C2 (some centres unmarked) [Example 22]
5.69	NC(=O)c1cccnc1O[C@H]1C[C@]2(C1)C[C@H](N1C(=O)C3CCCN3C1=O)C2 (some centres unmarked) [Example 23, 2-{[(αR)-6-{1,3-dioxo-hexahydro-1H-pyrrolo[1,2-c]imidazolidin-2-yl}spiro[3.3]-heptan-2-yl]oxy}-pyridine-3-carbox-amide]
7.35	CC[C@H](C)[C@@H]1NC(=O)N([C@H]2C[C@@]3(C[C@H](Oc4ncccc4C(N)=O)C3)C2)C1=O (stereo partly drawn) [Example 27, 2-{[(αR)-6-[(4S)-4-[(2S)-butan-2-yl]-2,5-dioxoimidazol-idin-1-yl]spiro-[3.3]heptan-2-yl]-oxy}pyridine-3-carboxamide]
